Assay results published in patent US7067248B2 (priority 2002, dated 2006).

Columns and labels:
VV [1] = format: cell-based, vaccinia virus
orthopoxvirus = conditions: cited from earlier work
VV [2] = conditions: cited from earlier work

Question: With `c1cnc2c(c1)ccc1ncccc12` [1,7-phenanthroline] as the compound, how does the VV replication (VV [1]) read?
Answer: no effect

Question: Which results are given for `c1cnc2c(c1)ccc1cccnc12` [1,10-phenanthroline]?
Answer: Inhibition of VV replication (FIG. 12) (VV [1]): potent inhibitors of VV replication; VV replication (VV [1]): completely blocked

Question: With `Nc1ccn(C[C@@H](CO)OCP(=O)(O)O)c(=O)n1` [Cidofovir] as the compound, how does the Anti-orthopoxvirus activity (orthopoxvirus) read?
Answer: potent anti-orthopoxvirus inhibitor

Question: Which “Inhibition of VV replication (FIG. 12)” value (VV [1]) does the source give for `NC(=O)CI` [iodoacetamide] here?
Answer: potent inhibitors of VV replication

Question: What about the VV replication (VV [1]) of the same compound?
Answer: completely blocked

Question: For `CN1C(=O)/C(=N\NC(N)=S)c2ccccc21` [methisazone, N-methylisatin β-thiosemicarbazone], which Anti-orthopoxvirus activity (orthopoxvirus) is on record?
Answer: effective at inhibiting orthopoxvirus infections in cultured cells

Question: With pepstatin A as the compound, how does the VV replication (VV [1]) read?
Answer: no effect

Question: For α-amanitin, which “Phenotype of VV replication” value (VV [2]) is on record?
Answer: abortive-late phenotype
